According to patent publication US9155759B2, “Heterochain aliphatic poly-N-oxide copolymers and vaccinating agents and drugs based thereon” (priority 2010, dated 2015):
Marks after values point to notes of the source that are not given here.

Experiments:
[1] = Antidotal properties at acute CuSo4 poisoning; type: in vivo
Method: The investigation was done in vivo at an acute CuSo4 poisoning. The preparations are administered to 7 groups of animals of which a normal saline solution is administered to the animals of the first group, CuSo4 alone in the doses fatal for animals (mg/kg): 12.5; 25.0; and 50.0 to the animals of groups 2÷4, and the similar CuSo4 doses in combination with the similar doses of CP—NO-3-1 are administered to the animals of groups 5÷7.
The results of investigations presented in table 4 testify to a pronounced antidotal effect of CP—NO.

[2] = tested on: erythrocytes; experiment: Quartz (SiO2) erythrocyte hemolysis model; type: cell-based, Human; conditions: for Protection from hemolysis / Hemolysis: SiO2 3 mg; for Hemolysis: 1 hour, 37° C.
Method: The investigation was done on a model of quartz (SiO2) erythrocyte hemolysis using the international standard of quartz dust DQ-12 having a dispersion degree of less than 3 μm according to the A. David method (1976). Human blood was taken with heparin, erythrocytes were thrice washed in a 10-fold volume of a water-white Henx solution followed by centrifuging at 3000 rpm for 10 min. An erythrocyte suspension was resuspended to a 4% concentration ([…]). All investigations were done in 3÷5 parallel assays. The samples of SiO2 and erythrocytes were taken under continuous agitation on a magnetic agitator.
1 ml of a 4% erythrocyte suspension was mixed with 1 ml of the investigated preparation adding 1 ml of 0.3% (3 mg/ml) of a SiO2 suspension and incubated for 1 hour at a temperature of 37° C. carefully shaking the samples every 5 minutes. After incubation all samples were added with 7 ml of a buffer, it was centrifuged and the supernatant was photometered on SF-26 at 540 nm. The results of hemolysis were expressed in percents taking as 100% the content of hemoglobin in the samples of 1 ml of a 4% erythrocyte suspension with 9 ml of distilled water. The protective effect of the investigated preparations was calculated according to the formula and expressed in percents: […]
E540 K SiO2 is extinction of the control samples—a “water-silicon-erythrocytes” test tube.
A property of CP—NO to protect erythrocytes from hemolysis was compared to high molecular plasma-substituting solutions of polyvinylpyrrolidone (hemodez), dextran (polyglucin) and albumin. As a buffer, a water-white Henx solution was used.

Compound | % of animal death at days 1-2 ([1]; CuSO4 12.5 mg/kg alone) [%] | Animal survivability at day 30 ([1]; CuSO4 12.5 mg/kg alone) [%] | % of animal death at days 1-2 ([1]; CuSO4 25.0 mg/kg alone) [%] | Animal survivability at day 30 ([1]; CuSO4 25.0 mg/kg alone) [%] | % of animal death at days 1-2 ([1]; CuSO4 50.0 mg/kg alone) [%] | Animal survivability at day 30 ([1]; CuSO4 50.0 mg/kg alone) [%] | protective properties against hemolysis (in words) ([2]; comparison detoxicants) | Protection from hemolysis ([2]; dose 100 μg/ml) [%] | Hemolysis ([2]; dose 100 μg/ml) [%] | Protection from hemolysis ([2]; dose 1000 μg/ml) | Hemolysis ([2]; dose 1000 μg/ml)
O=S(=O)([O-])[O-].[Cu+2] [CuSO4] | 100 | 0 | 100 | 0 | 100 | 0 |  |  |  |  | 
Albumin |  |  |  |  |  |  | a pronounced effect is achieved only in high doses | 18.0 | 82.0 | 86.5* % | 13.5* %
